Test results reported in US20260174858A1, “TARGETING THE m6A MRNA DEMETHYLASE FTO” (University of Virginia Patent Foundation, priority 2022, published 2026).
d = 2'-deoxy (DNA); r = 2'-OH (RNA); {P} = phosphate

Test system: mouse BMDMs
Assay: VEGFA release in mouse BMDMs (ELISA)
Type: cell-based
Conditions: ELISA
Description: Primary WT or mutant mouse bone marrow derived macrophages (BMDMs) were isolated as previously described (4). BMDMs were cultured in IMDM (Gibco) basal medium containing 10% fetal bovine serum (FBS), 30% L929 supernatants, nonessential amino acids, sodium pyruvate, 2-mercaptoethanol, and antibiotics. THP-1 cells were cultured in RPMI 1640 medium with 10% FBS and antibiotics. Human RPE cells were isolated as previously described and cultured in DMEM medium with 10% FBS and antibiotics. All cells were maintained at 37° C. in a 5% CO2 environment.
The RPE-choroid complex was isolated from mouse eyes on day 3 after laser injury and treatment with FTO inhibitor or vehicle. Eye tissues were lysed by sonication with immunoprecipitation assay (RIPA) buffer (Sigma-Aldrich, R0278, USA) containing protease inhibitor (Sigma-Aldrich, 11836170001, USA), on ice for 15 minutes. The lysate was centrifuged at 20,000×g for 15 minutes at 4° C., and total protein in the lysates was quantified using the Thermo Scientific™ Pierce™ BCA™ Protein Assay (Fisher Scientific, PI23225, USA). VEGFA protein levels in the supernatants were measured by VEGF DuoSet ELISA (R&D Systems, DY493, USA), following the manufacturer's instructions. Mouse BMDMs or human THP-1 cells (5×10^5 cells per well) were plated into six-well plates in complete medium and allowed to adhere overnight. Cells were then incubated for 24 hours in the absence or presence of various doses of FTO inhibitor or METTL3 inhibitors (STM2457, Selleck Chemicals). […] The siRNAs (siFto: 5′-P.G.A.G.G.A.U.C.C.A.A.G.G.C.A.A.A.G.A.U.dT.dT 3′ (SEQ ID NO: 38); siCtrl: 5′-P.U.A.A.G.G.C.U.A.U.G.A.A.G.A.G.A.U.dT.dT 3′; SEQ ID NO: 39), were designed and synthesized by GE Healthcare Dharmacon, were transfected twice with BMDMs by using DharmaFECT 4 Transfection Reagent (Dharmacon, T-2004, USA). VEGFA levels in the supernatants were measured by mouse or human VEGF DuoSet ELISA (R&D Systems, DY493 or DY293B, USA), following the manufacturer's instructions.

| Substance | VEGFA release after Fto knockdown (BMDMs transfected with siRNA targeting Fto vs control) | VEGFA release with METTL3 inhibitor (various doses, 24 hours) |
| --- | --- | --- |
| siFto: siFto: 5′-P.G.A.G.G.A.U.C.C.A.A.G.G.C.A.A.A.G.A.U.dT.dT 3′ (SEQ ID NO: 38), Dharmacon (sense GAGGAUCCAAGGCAAAGAUTT; sugars from the 5' end r19 d2, 5' {P}, backbone not given here) | significantly dampened macrophage mediated VEGFA release | – |
| STM2457 | – | dose-dependent increase in VEGFA release |
